Results from PubChem BioAssay (NCI).
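Tested at 5 concentrations; 48 h exposure; 96-well plates; endpoints linearly interpolated, else capped at highest concentration. The concentration for 50% growth inhibition is given as GI50. The concentration for full growth arrest is given as TGI.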

How the values were obtained:
Test in all cases: inhibition of tumour cell growth, NCI panel, 48 h
[1] = test system: HOP-92 NSCLC
[2] = test system: K-562 leukemia
[3] = test system: CCRF-CEM leukemia
[4] = test system: TK-10 renal
[5] = test system: UACC-62 melanoma
[6] = test system: UACC-257 melanoma
[7] = test system: NCI-H226 lung
[8] = test system: NCI-H460 lung
[9] = test system: SNB-19 CNS
[10] = test system: MCF7 breast
[11] = test system: BT-549 breast
[12] = test system: M14 melanoma
[13] = test system: RXF 393 renal
[14] = test system: HL-60(TB) leukemia
[15] = test system: SK-MEL-2 melanoma
[16] = test system: HS 578T breast
[17] = test system: SF-268 CNS
[18] = test system: KM12 colon
[19] = test system: SK-OV-3 ovarian
[20] = test system: A549 NSCLC
[21] = test system: SF-539 CNS
[22] = test system: EKVX NSCLC
[23] = test system: OVCAR-8 ovarian
[24] = test system: NCI-H522 lung
[25] = test system: SR leukemia
[26] = test system: A498 renal
[27] = test system: LOX IMVI melanoma
[28] = test system: HCC-2998 colon
[29] = test system: RPMI-8226 leukemia
[30] = test system: IGROV1 ovarian
[31] = test system: OVCAR-4 ovarian
[32] = test system: HCT-116 colon
[33] = test system: HCT-15 colon
[34] = test system: PC-3 prostate
[35] = test system: ACHN renal
[36] = test system: OVCAR-3 ovarian
[37] = test system: SN12C renal
[38] = test system: SW-620 colon
[39] = test system: HOP-62 NSCLC
[40] = test system: SNB-75 CNS
[41] = test system: SF-295 CNS
[42] = test system: MDA-MB-435
[43] = test system: OVCAR-5 ovarian
[44] = test system: T-47D breast
[45] = test system: SK-MEL-5 melanoma
[46] = test system: U251 CNS
[47] = test system: 786-0 renal
[48] = test system: MDA-MB-231 breast
[49] = test system: MOLT-4 leukemia
[50] = test system: COLO 205 colon
[51] = test system: HT29 colon
[52] = test system: MALME-3M melanoma
[53] = test system: NCI-H23 lung
[54] = test system: DU-145 prostate
[55] = test system: SK-MEL-28 melanoma
[56] = test system: UO-31 renal
[57] = test system: MDA-MB-468 breast
[58] = test system: CAKI-1 renal

Compound `COc1cccc(-c2c(C#N)c(-c3ccc(Cl)cc3)nc3n[nH]c(-c4ccc(Cl)cc4)c23)c1` has a GI50 [1] of 2.35 µM, a TGI [1] of 9.24 µM and a GI50 [2] of 4.01 µM. The TGI [2] was 78.6 µM, the GI50 [3] was 6.56 µM and the TGI [3] was greater than 100 µM. It also gave a GI50 [4] of 38 µM, a TGI [4] greater than 100 µM and a GI50 [5] of 12.6 µM. It also gave a TGI [5] of 29.1 µM, a GI50 [6] of 22.7 µM and a TGI [6] of 93.3 µM. It also gave a GI50 [7] of 11.9 µM, a TGI [7] of 49.1 µM and a GI50 [8] of 13.5 µM. The TGI [8] was 46.7 µM, the GI50 [9] was 20 µM and the TGI [9] was greater than 100 µM. The GI50 [10] was 6 µM, the TGI [10] was greater than 100 µM and the GI50 [11] was 6.07 µM. For the same compound, the TGI [11] was 27.4 µM, the GI50 [12] was 9.82 µM and the TGI [12] was 34.1 µM. For the same compound, the GI50 [13] was 11.5 µM, the TGI [13] was 79.3 µM and the GI50 [14] was 4.77 µM. For the same compound, the TGI [14] was 43.5 µM, the GI50 [15] was 13.9 µM and the TGI [15] was 30.1 µM. The GI50 [16] was 11.1 µM, the TGI [16] was 89.6 µM and the GI50 [17] was 14.8 µM. The TGI [17] was greater than 100 µM, the GI50 [18] was 8.81 µM and the TGI [18] was greater than 100 µM. The GI50 [19] was 18.1 µM, the TGI [19] was 98.7 µM and the GI50 [20] was 15.1 µM. For the same compound, the TGI [20] was greater than 100 µM, the GI50 [21] was 8.28 µM and the TGI [21] was 25.9 µM. For the same compound, the GI50 [22] was 11.8 µM, the TGI [22] was greater than 100 µM and the GI50 [23] was 20.9 µM. For the same compound, the TGI [23] was greater than 100 µM, the GI50 [24] was 16.1 µM and the TGI [24] was 92.7 µM. The GI50 [25] was 7.09 µM, the TGI [25] was 50.3 µM and the GI50 [26] was 33.3 µM. It also gave a TGI [26] greater than 100 µM, a GI50 [27] of 10.6 µM and a TGI [27] of 28.9 µM. It also gave a GI50 [28] of 6.14 µM, a TGI [28] of 31 µM and a GI50 [29] of 4.44 µM. The TGI [29] was greater than 100 µM, the GI50 [30] was 16 µM and the TGI [30] was 68 µM. For the same compound, the GI50 [31] was 4.96 µM, the TGI [31] was 86.4 µM and the GI50 [32] was 4.66 µM. For the same compound, the TGI [32] was 26.2 µM, the GI50 [33] was 4.16 µM and the TGI [33] was 27.8 µM. The GI50 [34] was 3.19 µM, the TGI [34] was greater than 100 µM and the GI50 [35] was 13.6 µM. The TGI [35] was greater than 100 µM, the GI50 [36] was 9.27 µM and the TGI [36] was 80 µM. The GI50 [37] was 12 µM, the TGI [37] was greater than 100 µM and the GI50 [38] was 21.2 µM. For the same compound, the TGI [38] was greater than 100 µM, the GI50 [39] was 16.4 µM and the TGI [39] was 80.6 µM. It also gave a GI50 [40] of 12.7 µM, a TGI [40] of 64.3 µM and a GI50 [41] of 12.1 µM. For the same compound, the TGI [41] was 33 µM, the GI50 [42] was 13.4 µM and the TGI [42] was 37.2 µM. For the same compound, the GI50 [43] was 11.2 µM, the TGI [43] was 50.8 µM and the GI50 [44] was 3.42 µM. The TGI [44] was 77.8 µM, the GI50 [45] was 12.4 µM and the TGI [45] was 26.3 µM. The GI50 [46] was 13.6 µM, the TGI [46] was greater than 100 µM and the GI50 [47] was 11.2 µM. The TGI [47] was greater than 100 µM, the GI50 [48] was 12.8 µM and the TGI [48] was 35.1 µM. The GI50 [49] was 3.45 µM, the TGI [49] was 49.2 µM and the GI50 [50] was 11.3 µM. It also gave a TGI [50] of 25.2 µM, a GI50 [51] of 9.76 µM and a TGI [51] of 29.8 µM. It also gave a GI50 [52] of 11.5 µM, a TGI [52] of 31.7 µM and a GI50 [53] of 13.6 µM. It also gave a TGI [53] greater than 100 µM, a GI50 [54] of 21 µM and a TGI [54] greater than 100 µM. It also gave a GI50 [55] of 17.8 µM, a TGI [55] of 74.8 µM and a GI50 [56] of 2.38 µM. The TGI [56] was 72.7 µM, the GI50 [57] was 19.1 µM and the TGI [57] was greater than 100 µM. The GI50 [58] was 7.91 µM and the TGI [58] was 32.9 µM.
